# In US8911725B2, “Co-targeting of aurora A kinase and LIM kinase 1 for cancer therapy” (University of Central Florida Research Foundation, Inc., priority 2010, dated 2014):
# What was measured:
# Assay type in all cases: cell-based
# [1] = tested on: PC3 cells; assay: Cell proliferation by MTS assay, MLN8237 with LIMK1 shRNA or control shRNA
# Description: 10 cm dishes were transiently transfected with 6 ug of LIMK1 shRNA or control shRNA. 24 hrs post transfection, untransfected PC3 cells along with the transfected PC3 cells were seeded in 96 well plates in triplicate (5,000 cells/well). 14 hrs after seeding, media was changed to MLN8237 containing media, at concentrations of 0.001 uM, 0.01 uM, and 0.1 uM. After 24 and 48 hours of inhibitor treatment, cell proliferation was measured using MTS assay. MTS reagent was added to each well and allowed to incubate for 3 hrs at 37° C. before reading absorbances. Absorbances were compared against controls.
# [2] = tested on: PC3 and RWPE1 cells; assay: Immunofluorescence analysis of cells treated with MLN8237; conditions: MLN8237 0.01 uM, 24 hr
# [3] = tested on: PC3 cells; assay: Western blot analysis of nuclear extracts for phospho-Histone H3; conditions: MLN8237 0.01 uM, nuclear extracts from PC3 cells
# Description: (§1) FIG. 8. […] Western blot analysis of nuclear extracts from PC3 cells treated with MLN8237 (0.01 uM). Y-tubulin staining was used as the loading control. […] PC3 and RWPE1 cells were treated with MLN8237 (0.01 uM) MLN8237 for 24, 48, and 72 hr and cell viability was measured by MTT Assay.
# [4] = tested on: PC3 and RWPE1 cells; assay: Cell viability by MTT assay; conditions: MLN8237 0.01 uM, 24, 48 and 72 hr
# Description: as §1
# [5] = tested on: PC3 cells; assay: Western blot of LIMK1 and pAurKA after LIMK1 shRNA transfection; conditions: LIMK1 shRNA versus control shRNA
# Description: FIG. 6 PC3 cells were transfected with LIMK1 shRNA or control shRNA and the levels of LIMK1 and pAurKA were detected by western blotting using anti-LIMK1 or anti phospho-AurKA antibodies. GAPDH was used as the loading control. The ratio of pAurKA to GAPDH levels was determined by densitometry (left panel).
# [6] = tested on: PC3 cells; assay: Immunofluorescence of spindle structure after LIMK1 shRNA transfection, spindle abnormalities counted
# Source text: FIG. 7 A: PC3 cells were transfected with either LIMK1 or control shRNA. In control shRNA transfected cells, distinct localization of pAurKA (green) at the spindle poles (red) could be noted. […] PC3 cells were transfected with either LIMK1 or control shRNA and spindle abnormalities were quantified by counting 50 cells per treatment.
Compound,"sensitivity of untransfected PC3 cells to MLN8237 (MTS) ([1]; 0.001, 0.01 and 0.1 uM, 24 and 48 hr)",localization of pAurKA and spindle morphology (alpha-tubulin) [2],localization of pLIMK1 and centrin [2],levels of phospho-Histone H3 (mitotic arrest) [3],"cell survival (cell viability, MTT) [4]",level of phosphorylated AurKA [5],"number of viable cells compared to control shRNA ([1]; 0.001 uM MLN8237, 48 hrs, PC3 cells) [%]","number of viable cells compared to control shRNA ([1]; 0.1 uM MLN8237, 48 hrs, PC3 cells) [%]","sensitivity to MLN8237 versus control shRNA transfected cells ([1]; PC3 cells, MLN8237 0.001-0.1 uM)","sensitivity to AurKA inhibitor versus untransfected PC3 cells treated only with AurKA inhibitor ([1]; normalised to untransfected PC3 cells treated with vehicle (DMSO), 24 and 48 hr)",number of abnormal spindles ([6]; 50 cells counted per treatment),spindle structure (alpha-tubulin staining) ([6]; LIMK1 shRNA versus control shRNA)
COc1cc(Nc2ncc3c(n2)-c2ccc(Cl)cc2C(c2c(F)cccc2OC)=NC3)ccc1C(=O)O [MLN8237],most sensitive to 0.1 uM MLN8237 at 48 hrs,mislocalization of pAurKA (green) and improper spindle morphology,diffused staining and mislocalization of pLIMK1 (green) and centrin (red) in the nucleus,Increased the Levels of phospho-Histone H3,Decreased Cell Survival,,,,,,,
"AAGGACAAGAGGCTCAACTTCATCACTGA (listed as DNA, chemistry not given here) [LIMK1 shRNA, interfering RNA (shRNA) targeting LIMK1]",,,,,,decreased the level of phosphorylated AurkA,75,83,more sensitivity to MLN8237,increased the sensitivity of the cells to AurKA inhibitor at all concentrations,increased the number of abnormal spindles,disorganized spindle structure
